Source: patent US20190209585A1, “COMBINATION THERAPY COMPRISING A POLYUNSATURATED KETONE AND A SECOSTEROID” (Avexxin AS, priority 2016, published 2019)
Entries after “also recorded” stand apart in the source; their conditions may differ.

How the values were obtained:
[1] = test system: HaCaT cells; assay: Resazurin assay of HaCaT keratinocyte cell proliferation and viability
Description: (§1) The spontaneously immortalized, nontumorigenic skin keratinocyte cell line HaCaT was maintained in DMEM supplemented with 5% (v/v) FBS, 0.3 mg/ml glutamine and 0.1 mg/ml gentamicin at 37° C. with 5% CO2 in a humidified atmosphere. Subculture using trypsin-EDTA was performed every 3-4 days with split ratio of 1:3-1:4 to ensure actively proliferating cells.
(§2) Cells were seeded in 96 well plates in fully supplemented medium at a density of 2500 cells per well. Following 72 hours of cultivation, the cells were starved of serum in 0.25% FBS/DMEM overnight to halt proliferation, synchronize and to increase cell sensitivity to treatment. On day 4, the cells were treated with cPLA2α inhibitor Compound A and vitamin D analogue Calcipotriol hydrate (Sigma Aldrich #C4369) and left to incubate for […] in incubator at 37° C. with 5% CO2 in a humidified atmosphere before fluorescence was read at 544 nm excitation and 590 nm emission wavelength. The cells were observed under the microscope to evaluate possible morphology changes and signs of stress before addition of resazurin. The experiments were performed in series of 8 wells per treatment and repeated 2-3 times.
as §2, with “hour” for “hours”, “synchronize the cells” for “synchronize”, “corticosteroid Betamethasone 17, 21-dipropionate (Sigma Aldrich #B1152)” for “cPLA2α inhibitor Compound A”, “#C4369) for 24 hours. On day 5, resazurin was added according to the manufacturer's instruction (RnD Systems, UK)” for “#C4369)”
as §2, with “3000” for “2500”, “48-72 hour” for “72 hours”, “synchronize the cells” for “synchronize”, “Next day,” for “On day 4,”, “compound” for “cPLA2α inhibitor Compound”, “or calcipotriol for 24 hours. Resazurin was added next day according to the manufacturer's instruction (RnD Systems, UK)” for “and vitamin D analogue Calcipotriol hydrate (Sigma Aldrich #C4369)”
as §1, with “1:4” for “1:3-1:4”
Cells were seeded in 96 well plates in fully supplemented medium at a density of 3000 cells per well. Following 72 hour of cultivation, the cells were starved of serum in 0.25% FBS/DMEM overnight to halt proliferation, synchronize the cells and to increase cell sensitivity to treatment. Next day, the cells were treated with Compound A, vitamin D analogue Calcipotriol and corticosteroid hormone receptor agonist Betamethasone dipropionate for 24 hours.

[2] = test system: PGE2 production in PBMC challenged with LPS; assay: PGE2 enzyme immunoassay of supernatants of PBMC challenged with LPS; format: cell-based, human
Description: Blood from healthy, consenting blood donors was collected at St. Olays Hospital HF, Trondheim, Norway.
From each donor, 2×6 ml heparin tubes with blood were used. Peripheral blood mononuclear cells (PBMC) were isolated using 50 mL SepMate™ tubes ([…]™ Technology, UK) and Lymphoprep™ (Fresenius Kabi, N) density gradient according to the manufacturers instructions.
PBMC were resuspended in RPMI-1640 cell culture medium complemented with 5% heat-inactivated fetal bovine serum (FBS), 0.03% glutamine, 0.01 mg/mL gentamicin and 3.4 ppm β-mercaptoethanol (all reagents from Sigma-Aldrich). […]
PGE2 enzyme immunoassay analysis of PBMC supernatants was performed according to the kit protocol (Cayman Chemicals, #514010, USA). […] The plate was read at OD 420 nm using a Cytation 5 imaging reader from BioTek and data acquired with the corresponding software Gen5 2.09. A four-parameter logistic model was fit to the absorbance data to determine PGE2 levels using the Cayman PGE2 protocol. […]
Accordingly, we isolated peripheral blood mononuclear cells, treated them with various doses and combinations of Compound A and calcipotriol and finally added LPS as a trigger to mount a broad inflammatory response. The cell supernatants collected following 72 hrs of LPS stimulation were next analyzed with respect to levels of PGE2, a key proinflammatory mediator close to the cPLA2α target.

CCC(=O)OCC(=O)[C@@]1(OC(=O)CC)[C@@H](C)C[C@H]2[C@@H]3CCC4=CC(=O)C=C[C@]4(C)[C@@]3(F)[C@@H](O)C[C@@]21C [Betamethasone, Betamethasone 17, 21-dipropionate]
reduction of cell proliferation and viability ([1]; Example 2, 24 hours, 50 μM Betamethasone alone): 10%

C=C1/C(=C\C=C2/CCC[C@]3(C)[C@@H]([C@H](C)/C=C/[C@@H](O)C4CC4)CC[C@@H]23)C[C@@H](O)C[C@@H]1O [Calcipotriol]
effect on proliferation and viability of HaCaT cells ([1]; Example 1, 10 μM, alone): little or no effect | effect on HaCaT cell viability ([1]; Example 3/4, 24 hours, 15 μM, alone): affect cell viability; also recorded: reduced cell viability | effect on HaCaT cell viability ([1]; Example 3, 24 hours, doses 1-10 μM, alone): no signs of impairment in cell viability | effect on HaCaT cell viability ([1]; Example 4, 10 μM, alone): no signs of impairment in cell viability | cytotoxicity at 10 µM ([1]; Homo sapiens, HaCaT, 24 h, read-out: reduction of cell proliferation and viability): 20% | increase of PGE2 ([2]; calcipotriol 0.5 μM alone): 18% | effect on PGE2 levels ([2]; high doses of calcipotriol alone (<0.5 μM)): PGE2 levels increased
